Patent US20260022142A1, “MACROCYCLIC IMMUNOMODULATORS” (Bristol-Myers Squibb Company, priority 2022, published 2026)
Bridge positions count the residues as written; N and C are the ends. Square brackets hold non-standard residues; d marks the D form. Peptide text beside a SMILES is read from it. * marks the point of attachment. Bip = N[C@@H](Cc1ccc(-c2ccccc2)cc1)C(=O)O; Phe(3-Me) = Cc1cccc(C[C@H](N)C(=O)O)c1; Cha = N[C@@H](CC1CCCCC1)C(=O)O; Carboxymethyl = O=C(O)C*; Nle = CCCC[C@H](N)C(=O)O; Orn = NCCC[C@H](N)C(=O)O; Aun = NCCCCCCCCCCC(=O)O; Dab = NCC[C@H](N)C(=O)O; Dap = NC[C@H](N)C(=O)O

Target: T1, PD-1/PD-L1 interaction (PE-labeled human PD-L1-Ig binding to Jurkat cell line over-expressing human PD-1) (Homo sapiens, UniProt Q15116)
T1 construct: expressed in transfected cells; host or cells: Jurkat
Test: Jurkat-PD-1 Cell Binding High-Content Screening Assay (CBA)
Format: cell-based
Settings: Jurkat cell line over-expressing human PD-1; PE-labeled PD-L1-Ig 20 nM final; read-out: Jurkat hPD1-PDL1 IC50
Summary of the method: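 First, compound is added to PD-1-expressing Jurkat cells in serum-containing DMEM and left 2 h at 37° C. Next, PE-conjugated PD-L1-Ig is introduced at 20 nM final concentration for 1 hour. Finally, cells are fixed in 4% paraformaldehyde with Hoechst 33342, washed and imaged.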

T1 sequence (Q15116 25-288): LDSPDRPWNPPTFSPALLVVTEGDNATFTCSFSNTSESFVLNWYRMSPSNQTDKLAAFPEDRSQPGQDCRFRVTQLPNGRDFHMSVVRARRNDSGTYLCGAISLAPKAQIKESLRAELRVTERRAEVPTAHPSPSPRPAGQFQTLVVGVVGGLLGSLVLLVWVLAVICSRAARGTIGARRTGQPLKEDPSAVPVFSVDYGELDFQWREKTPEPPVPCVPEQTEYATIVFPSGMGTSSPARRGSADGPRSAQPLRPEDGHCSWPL

Compound	IC50
CCCC[C@@H]1NC(=O)[C@H](C(C)C)NC(=O)[C@H](CC2CCCCC2)NC(=O)[C@H](CCN)NC(=O)[C@@H](CC(C)C)NC(=O)[C@H](CCCN)NC(=O)[C@H](Cc2ccc(O)cc2)NC(=O)[C@H](Cc2ccc(-c3ccccc3)cc2)NC(=O)[C@H](Cc2ccc(O)cc2)NC(=O)[C@H](Cc2cccc(C)c2)NC(=O)[C@H](CC(=O)O)NC(=O)[C@H](Cc2ccc(OCC(=O)O)cc2)NC(=O)[C@H](CN)NC(=O)CSC[C@@H](C(=O)N[C@@H](CCN)C(=O)NCCCCCCCCCCC(=O)O)NC1=O [Compound 2714] ({CH2CO}-[Dap]Y(Carboxymethyl)D[Phe(3-Me)]Y[Bip]Y[Orn][dL][Dab][Cha]V[Nle]C[Dab][Aun]-OH; thioether N-14)	406 nM
Cc1cccc(C[C@@H]2NC(=O)[C@H](CC(=O)O)NC(=O)[C@H](Cc3ccc(OCC(=O)O)cc3)NC(=O)[C@H](CN)NC(=O)CSC[C@@H](C(=O)N[C@@H](CCN)C(=O)NCCCCCCCCCCC(=O)O)NC(=O)[C@H](CO)NC(=O)[C@H](C(C)C)NC(=O)[C@H](CC3CCCCC3)NC(=O)[C@H](CCN)NC(=O)[C@@H](CC(C)C)NC(=O)[C@H](CCCN)NC(=O)[C@H](Cc3ccc(O)cc3)NC(=O)[C@H](Cc3ccc(-c4ccccc4)cc3)NC(=O)[C@H](C(C)C)NC2=O)c1 [Compound 2718] ({CH2CO}-[Dap]Y(Carboxymethyl)D[Phe(3-Me)]V[Bip]Y[Orn][dL][Dab][Cha]VSC[Dab][Aun]-OH; thioether N-14)	31.3 nM
CCCC[C@@H]1NC(=O)[C@H](C(C)C)NC(=O)[C@H](CC2CCCCC2)NC(=O)[C@H](CCN)NC(=O)[C@@H](CC(C)C)NC(=O)[C@H](CCCN)NC(=O)[C@H](Cc2ccc(O)cc2)NC(=O)[C@H](Cc2ccc(-c3ccccc3)cc2)NC(=O)[C@H](C(C)C)NC(=O)[C@H](Cc2cccc(C)c2)NC(=O)[C@H](CC(=O)O)NC(=O)[C@H](Cc2ccc(OCC(=O)O)cc2)NC(=O)[C@H](CN)NC(=O)CSC[C@@H](C(=O)N[C@@H](CCN)C(=O)NCCCCCCCCCCC(=O)O)NC1=O [Compound 2720] ({CH2CO}-[Dap]Y(Carboxymethyl)D[Phe(3-Me)]V[Bip]Y[Orn][dL][Dab][Cha]V[Nle]C[Dab][Aun]-OH; thioether N-14)	135 nM
Cc1cccc(C[C@@H]2NC(=O)[C@H](CC(=O)O)NC(=O)[C@H](Cc3ccc(OCC(=O)O)cc3)NC(=O)[C@H](CN)NC(=O)CSC[C@@H](C(=O)N[C@@H](CCN)C(=O)NCCCCCCCCCCC(=O)O)NC(=O)[C@@H]([C@H](C)O)NC(=O)[C@H](C(C)C)NC(=O)[C@H](CC3CCCCC3)NC(=O)[C@H](CCN)NC(=O)[C@@H](CC(C)C)NC(=O)[C@H](CCCN)NC(=O)[C@H](Cc3ccc(O)cc3)NC(=O)[C@H](Cc3ccc(-c4ccccc4)cc3)NC(=O)[C@H](C(C)C)NC2=O)c1 [Compound 2722] ({CH2CO}-[Dap]Y(Carboxymethyl)D[Phe(3-Me)]V[Bip]Y[Orn][dL][Dab][Cha]V[dT]C[Dab][Aun]-OH; thioether N-14)	34.3 nM

Stronger by IC50, values ahead:

IC50	Compound
7.7 nM	Cc1cccc(C[C@@H]2NC(=O)[C@H](CC(=O)O)NC(=O)[C@H](Cc3ccc(OCC(=O)O)cc3)NC(=O)[C@H](CN)NC(=O)CSC[C@@H](C(=O)N[C@@H](CCN)C(=O)NCCCCCCCCCCC(=O)O)NC(=O)[C@H](CCC(N)=O)NC(=O)[C@H](C(C)C)NC(=O)[C@H](CC3CCCCC3)NC(=O)[C@H](CCN)NC(=O)[C@@H](CC(C)C)NC(=O)[C@H](CCCN)NC(=O)[C@H](Cc3ccc(O)cc3)NC(=O)[C@H](Cc3ccc(-c4ccccc4)cc3)NC(=O)[C@H](Cc3ccc(O)cc3)NC2=O)c1 [Compound 2713] ({CH2CO}-[Dap]Y(Carboxymethyl)D[Phe(3-Me)]Y[Bip]Y[Orn][dL][Dab][Cha]VQC[Dab][Aun]-OH; thioether N-14)
8.9 nM	Cc1cccc(C[C@@H]2NC(=O)[C@H](CC(=O)O)NC(=O)[C@H](Cc3ccc(OCC(=O)O)cc3)NC(=O)[C@H](CN)NC(=O)CSC[C@@H](C(=O)N[C@@H](CCN)C(=O)NCCCCCCCCCCC(=O)O)NC(=O)[C@@H](CCC(N)=O)NC(=O)[C@H](C(C)C)NC(=O)[C@H](CC3CCCCC3)NC(=O)[C@H](CCN)NC(=O)[C@@H](CC(C)C)NC(=O)[C@H](CCCN)NC(=O)[C@H](Cc3ccc(O)cc3)NC(=O)[C@H](Cc3ccc(-c4ccccc4)cc3)NC(=O)[C@H](Cc3ccc(O)cc3)NC2=O)c1 [Compound 2715] ({CH2CO}-[Dap]Y(Carboxymethyl)D[Phe(3-Me)]Y[Bip]Y[Orn][dL][Dab][Cha]V[dQ]C[Dab][Aun]-OH; thioether N-14)
24.3 nM	Cc1cccc(C[C@@H]2NC(=O)[C@H](CC(=O)O)NC(=O)[C@H](Cc3ccc(OCC(=O)O)cc3)NC(=O)[C@H](CN)NC(=O)CSC[C@@H](C(=O)N[C@@H](CCN)C(=O)NCCCCCCCCCCC(=O)O)NC(=O)[C@@H]([C@H](C)O)NC(=O)[C@H](C(C)C)NC(=O)[C@H](CC3CCCCC3)NC(=O)[C@H](CCN)NC(=O)[C@@H](CC(C)C)NC(=O)[C@H](CCCN)NC(=O)[C@H](Cc3ccc(O)cc3)NC(=O)[C@H](Cc3ccc(-c4ccccc4)cc3)NC(=O)[C@H](Cc3ccc(O)cc3)NC2=O)c1 [Compound 2716] ({CH2CO}-[Dap]Y(Carboxymethyl)D[Phe(3-Me)]Y[Bip]Y[Orn][dL][Dab][Cha]V[dT]C[Dab][Aun]-OH; thioether N-14)
17.1 nM	Cc1cccc(C[C@@H]2NC(=O)[C@H](CC(=O)O)NC(=O)[C@H](Cc3ccc(OCC(=O)O)cc3)NC(=O)[C@H](CN)NC(=O)CSC[C@@H](C(=O)N[C@@H](CCN)C(=O)NCCCCCCCCCCC(=O)O)NC(=O)[C@H]([C@@H](C)O)NC(=O)[C@H](C(C)C)NC(=O)[C@H](CC3CCCCC3)NC(=O)[C@H](CCN)NC(=O)[C@@H](CC(C)C)NC(=O)[C@H](CCCN)NC(=O)[C@H](Cc3ccc(O)cc3)NC(=O)[C@H](Cc3ccc(-c4ccccc4)cc3)NC(=O)[C@H](C(C)C)NC2=O)c1 [Compound 2717] ({CH2CO}-[Dap]Y(Carboxymethyl)D[Phe(3-Me)]V[Bip]Y[Orn][dL][Dab][Cha]VTC[Dab][Aun]-OH; thioether N-14)
7.4 nM	Cc1cccc(C[C@@H]2NC(=O)[C@H](CC(=O)O)NC(=O)[C@H](Cc3ccc(OCC(=O)O)cc3)NC(=O)[C@H](CN)NC(=O)CSC[C@@H](C(=O)N[C@@H](CCN)C(=O)NCCCCCCCCCCC(=O)O)NC(=O)[C@H](CCC(N)=O)NC(=O)[C@H](C(C)C)NC(=O)[C@H](CC3CCCCC3)NC(=O)[C@H](CCN)NC(=O)[C@@H](CC(C)C)NC(=O)[C@H](CCCN)NC(=O)[C@H](Cc3ccc(O)cc3)NC(=O)[C@H](Cc3ccc(-c4ccccc4)cc3)NC(=O)[C@H](C(C)C)NC2=O)c1 [Compound 2719] ({CH2CO}-[Dap]Y(Carboxymethyl)D[Phe(3-Me)]V[Bip]Y[Orn][dL][Dab][Cha]VQC[Dab][Aun]-OH; thioether N-14)
22.4 nM	Cc1cccc(C[C@@H]2NC(=O)[C@H](CC(=O)O)NC(=O)[C@H](Cc3ccc(OCC(=O)O)cc3)NC(=O)[C@H](CN)NC(=O)CSC[C@@H](C(=O)N[C@@H](CCN)C(=O)NCCCCCCCCCCC(=O)O)NC(=O)[C@@H](CCC(N)=O)NC(=O)[C@H](C(C)C)NC(=O)[C@H](CC3CCCCC3)NC(=O)[C@H](CCN)NC(=O)[C@@H](CC(C)C)NC(=O)[C@H](CCCN)NC(=O)[C@H](Cc3ccc(O)cc3)NC(=O)[C@H](Cc3ccc(-c4ccccc4)cc3)NC(=O)[C@H](C(C)C)NC2=O)c1 [Compound 2721] ({CH2CO}-[Dap]Y(Carboxymethyl)D[Phe(3-Me)]V[Bip]Y[Orn][dL][Dab][Cha]V[dQ]C[Dab][Aun]-OH; thioether N-14)
